According to patent publication EP4653441A1, “SALT OF ANTIDEPRESSANT COMPOUND, AND PREPARATION METHOD THEREFOR, PHARMACEUTICAL COMPOSITION CONTAINING SAME AND USE THEREOF” (Vigonvita Life Sciences Co., Ltd., priority 2023, dated 2024):
≈ marks a conversion by molar mass, not a printed value. Read-outs that look alike come from different tables or passages of the source.

Key:
[1] = Stability test of the salts (high temperature / high humidity, 14 days); format: physicochemical
Protocol: (§1) 3. Hygroscopicity Measurement Method: The test sample was placed for 24 hours at 25°C and 92.5% RH, and then the weight gain by moisture absorption was measured. 4. Stability Test Method: The test sample was placed in a suitable clean container for 14 days under a high temperature (60°C), or a high humidity (40°C, a relative humidity of 75%) condition, and it was sampled on day 0 and day 14 to detect the purity and impurities of the test sample.

[2] = Solubility test in water by HPLC (external standard); format: physicochemical; conditions: 37°C, shaken 30 minutes
Protocol: 1. X-ray Powder Diffraction (XRPD) Test Method: • Instrument: Bruker D8 advance X-ray polycrystalline diffractometer; Target: Cu-Kα (40 kV, 40 mA); Sample-to-detector distance: 30 cm; Scanning type: two-axis linkage; Scanning step width: 0.02°; Scanning range: 3°~40°; Scanning step: 0.1 s. • In general, diffraction angles (2θ values) in XRPD may produce errors within a range of ± 0.2°, and thus numerical values relating to diffraction angles in the present invention should be understood to also encompass numerical values within a range of about ± 0.2°. Therefore, the present invention not only covers the crystal form that completely matches the characteristic signal peak in the specific XRPD pattern, but also covers the crystal form that has an error of about ± 0.2° with the characteristic signal peak in the specific XRPD pattern. 2. Solubility Test Method: About 20 mg of the test sample was taken and placed in a 1.5 ml sample tube, added with 1 ml of water, then placed in a shaker, shaken at 37°C for 30 minutes, the sample tube was taken and centrifuged in a centrifuge for 2 minutes, and the supernatant was taken for HPLC analysis.

[3] = Hygroscopicity measurement; format: physicochemical; conditions: 25°C, 92.5% RH, 24 hours
Protocol: as §1

[4] = cited from earlier work
[5] = molecular target: T1, 5-HT3 receptor (Homo sapiens, UniProt P46098); conditions: cited from earlier work
T1 sequence (P46098 24-478): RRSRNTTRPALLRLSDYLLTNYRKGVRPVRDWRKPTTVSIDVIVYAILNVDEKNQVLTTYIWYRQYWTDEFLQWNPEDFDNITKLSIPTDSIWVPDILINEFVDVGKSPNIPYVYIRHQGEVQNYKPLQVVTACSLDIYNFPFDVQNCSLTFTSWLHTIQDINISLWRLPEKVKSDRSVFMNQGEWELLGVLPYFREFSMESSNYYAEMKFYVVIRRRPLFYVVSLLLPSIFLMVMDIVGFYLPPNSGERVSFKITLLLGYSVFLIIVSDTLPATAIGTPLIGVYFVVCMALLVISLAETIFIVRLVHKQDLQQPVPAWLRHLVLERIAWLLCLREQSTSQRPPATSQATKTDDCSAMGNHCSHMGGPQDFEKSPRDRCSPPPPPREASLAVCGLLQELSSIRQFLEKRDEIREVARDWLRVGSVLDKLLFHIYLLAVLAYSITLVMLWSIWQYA

[6] = molecular target: serotonin reuptake (Homo sapiens, UniProt P31645); conditions: read-out: serotonin reuptake inhibition concentration (IC50); cited from earlier work
Chain of serotonin reuptake (P31645 whole entry): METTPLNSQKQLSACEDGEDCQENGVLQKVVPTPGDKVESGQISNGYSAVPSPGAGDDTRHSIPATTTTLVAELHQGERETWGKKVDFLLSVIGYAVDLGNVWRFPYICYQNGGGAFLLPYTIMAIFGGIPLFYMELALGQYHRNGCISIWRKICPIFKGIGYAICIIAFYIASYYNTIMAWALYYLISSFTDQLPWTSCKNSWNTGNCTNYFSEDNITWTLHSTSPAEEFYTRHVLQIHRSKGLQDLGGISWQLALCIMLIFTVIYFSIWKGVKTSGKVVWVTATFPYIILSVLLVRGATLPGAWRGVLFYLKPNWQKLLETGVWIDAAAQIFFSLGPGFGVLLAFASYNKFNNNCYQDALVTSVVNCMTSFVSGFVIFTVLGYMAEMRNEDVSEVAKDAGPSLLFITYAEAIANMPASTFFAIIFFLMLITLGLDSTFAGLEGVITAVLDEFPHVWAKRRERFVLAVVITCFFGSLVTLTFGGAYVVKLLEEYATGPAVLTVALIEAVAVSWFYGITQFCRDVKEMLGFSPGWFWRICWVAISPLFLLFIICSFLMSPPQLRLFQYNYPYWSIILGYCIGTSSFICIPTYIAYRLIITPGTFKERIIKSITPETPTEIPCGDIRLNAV

[7] = 60°C/14 days (aluminum foil pouch)

Row | SMILES | Total Impurity (%) ([1]; 40°C/75% RH/14 days) | Total Impurity (%) ([1]; 60°C/14 days) | Total Impurity (%) [1, 7] | Total Impurity (%) ([1]; Day 0) | Solubility [2] | weight gain by moisture absorption [3] | also measured
1 | CN1CC2CN(c3ccc4ccccc4c3)CC2C1 (single isomer, unassigned) [Example 7, 2-methyl-5-(naphthalen-2-yl)octahydropyrrolo[3,4-c]pyrrole] | 0.17% | 0.18% | 0.20% | 0.14% | 15 mg/mL (≈ 59.4 mM) | 0.64% | 
2 | CN1CC2CN(c3ccc4ccccc4c3)CC2C1 (single isomer, unassigned) [Example 1, 2-methyl-5-(naphthalen-2-yl)octahydropyrrolo[3,4-c]pyrrole] | 0.15% | 0.19% | 0.19% | 0.13% | >100 mg/mL | 1.6% | 
3 | CN1CC2CN(c3ccc4ccccc4c3)CC2C1 (single isomer, unassigned) [Example 5, 2-methyl-5-(naphthalen-2-yl)octahydropyrrolo[3,4-c]pyrrole] |  |  |  |  | 4 mg/mL (≈ 15.9 mM) | 1.21% | 
4 | CN1CC2CN(c3ccc4ccccc4c3)CC2C1 (stereo not drawn) [Example 3, 2-methyl-5-(naphthalen-2-yl)octahydropyrrolo[3,4-c]pyrrole] |  |  |  |  |  | To be liquid | 
5 | CN1CC2CN(c3ccc4ccccc4c3)CC2C1 (single isomer, unassigned) [Example 6, 2-methyl-5-(naphthalen-2-yl)octahydropyrrolo[3,4-c]pyrrole] |  |  |  |  |  | 1.26% | 
6 | CN1CC2CN(c3ccc4ccccc4c3)CC2C1 (stereo not drawn) [compound of formula (I), 2-methyl-5-(naphthalen-2-yl)octahydropyrrolo[3,4-c]pyrrole] |  |  |  |  |  |  | Solubility [4]: low; Total Impurity (%) ([1]; 40°C/75% RH/14 days, listed as Basic compoun d): 0.41%; Total Impurity (%) ([1]; 60°C/14 days (aluminum foil pouch), listed as Basic compoun d): 0.31%; Total Impurity (%) ([1]; 60°C/14 days, listed as Basic compoun d): 0.23%; Total Impurity (%) ([1]; Day 0, listed as Basic compoun d): 0.15%; affinity for 5-HT3 receptor [5]: high affinity; IC50 [6]: < 0.01 µM; Solubility ([2]; listed as basic compound of formula (I)): Almost Insoluble
7 | CN1CC2CN(c3ccc4ccccc4c3)CC2C1 (single isomer, unassigned) [Example 2, 2-methyl-5-(naphthalen-2-yl)octahydropyrrolo[3,4-c]pyrrole] | 0.31% | 0.37% | 0.36% | 0.35% | 11 mg/mL (≈ 43.6 mM) | 0.74% | 
8 | CN1CC2CN(c3ccc4ccccc4c3)CC2C1 (single isomer, unassigned) [Example 4, 2-methyl-5-(naphthalen-2-yl)octahydropyrrolo[3,4-c]pyrrole] | 0.44% | 0.22% | 0.24% | 0.21% | 3.5 mg/mL (≈ 13.9 mM) | 6.74% | 
